In patent US20240393292A1, “ALLERGY ANTIGEN AND EPITOPE THEREOF” (HOYU CO., LTD., priority 2019, published 2024):
Blank lines part the entries; values can stand above or below the substance they belong to.

Test system: IgE antibodies from patients
Assay: Wheat epitope mapping (2): overlapping 10-amino-acid peptide fragments shifted by one amino acid;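 as to Rank of partial sequence as epitope binding to IgE antibody: key = sequence deemed particularly important within the common 15-residue sequence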;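 as to epitope sequence binding to IgE antibody, rank (Key/Preferably/More preferably): key of grades: preferably = shorter partial sequence still acting as epitope; more preferably = sequence improving IgE binding; key = particularly important sequence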
Format: binding, human
Summary of the method: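 Cellulose-bound 10-mer peptides offset by one residue were probed with patient serum IgE and detected by chemiluminescence. Secondary-antibody-only signals were subtracted per peptide. Residual binding was expressed as % of the parent overlapping peptide, scored as none (<30%), poor (30–<50%), somewhat poor (50–<70%) or retained (≥70%).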

[1] = serum of patient P34 (WDEIA), sequence without X
[2] = serum of patient P26 (WDEIA), partial sequence

Substance: 1809 (ELEALPKFL; REGION 1..9: note = epitope) [compound 1809]
epitope sequence binding to IgE antibody, rank (Key/Preferably/More preferably) (serum of patient P26 (WDEIA)): Preferably

Substance: 1505 (SQQQA; REGION 1..5: note = epitope) [compound 1505]
Rank of partial sequence as epitope binding to IgE antibody (serum of patient G7 (adult, general immediate type allergy to wheat), sequence without X): Key

Substance: 1727 (KEAANF; REGION 1..6: note = epitope) [compound 1727]
epitope sequence binding to IgE antibody, rank (Key/Preferably/More preferably) (serum of patient P51 (child, general immediate type allergy to wheat)): Key

Substance: 1482 (YLQPQQPISQ; REGION 1..10: note = epitope) [compound 1482]
Rank of partial sequence as epitope binding to IgE antibody [1]: More preferably

Substance: 1464 (QQPISQQQA; REGION 1..9: note = epitope) [compound 1464]
Rank of partial sequence as epitope binding to IgE antibody (serum of patient P24 (WDEIA), sequence without X): More preferably

Substance: 1353 (NVEN; REGION 1..4: note = epitope) [compound 1353]
Epitope sequence binding to IgE antibody, rank of the sequence (serum of patient P35 (WDEIA), sequence without X): Key

Substance: 1419 (YLQPQQPIS; REGION 1..9: note = epitope) [compound 1419]
Epitope sequence binding to IgE antibody, rank of the sequence (serum of patient P9 (WDEIA), sequence without X): Key

Substance: 1618 (FVPISG; REGION 1..6: note = epitope) [compound 1618]
Rank of partial sequence as epitope binding to IgE antibody (serum of patient P20 (WDEIA), sequence without X): Key

Substance: 1804 (KFLKN; REGION 1..5: note = epitope) [compound 1804]
epitope sequence binding to IgE antibody, rank (Key/Preferably/More preferably) (serum of patient P18 (WDEIA)): Key

Substance: 1259 (LPRS; REGION 1..4: note = epitope) [compound 1259]
Epitope sequence binding to IgE antibody, rank of the sequence (Key/Preferably/More preferably/Further preferably) (serum of patient P2 (WDEIA), sequence without X): Key

Substance: 1183 (QQFPPQQ; REGION 1..7: note = epitope) [compound 1183]
Epitope sequence binding to IgE antibody, rank of the sequence (serum of patient P14 (WDEIA), sequence without X): Key

The next lines start with the values.

Epitope sequence binding to IgE antibody, rank of the sequence (serum of patient G7 (adult, general immediate type allergy to wheat), partial sequence): Preferably
Substance: 2543 (VSFQPSQLN; REGION 1..9: note = epitope) [compound 2543]

Epitope sequence binding to IgE antibody, rank of the sequence (serum of patient P33 (WDEIA), partial sequence): Key
Substance: 2692 (YKGPTL; REGION 1..6: note = epitope) [compound 2692]

Epitope sequence binding to IgE antibody, rank of the sequence (Key/Preferably/More preferably) (serum of patient P31 (WDEIA), sequence without X): Key
Substance: 2239 (NYRVAI; REGION 1..6: note = epitope) [compound 2239]

Epitope sequence binding to IgE antibody, rank of the sequence (serum of patient P34 (WDEIA), partial sequence): Key
Substance: 2693 (YKGPTL; REGION 1..6: note = epitope) [compound 2693]

Epitope sequence binding to IgE antibody, rank of the sequence (Key/Preferably/More preferably) (serum of patient P26 (WDEIA), sequence without X): More preferably
Substance: 2432 (QSTLKAWSGK; REGION 1..10: note = epitope) [compound 2432]

epitope sequence binding to IgE antibody, rank (Key/Preferably/More preferably) (serum of patient P32 (WDEIA)): Key
Substance: 1818 (PKFL; REGION 1..4: note = epitope) [compound 1818]

Epitope sequence binding to IgE antibody, rank of the sequence (serum of patient G2 (adult, general immediate type allergy to wheat), partial sequence): Preferably
Substance: 2530 (FQPSQLNP; REGION 1..8: note = epitope) [compound 2530]

Epitope sequence binding to IgE antibody, rank of the sequence (Key/Preferably/More preferably) (serum of patient P25 (WDEIA), sequence without X): Key
Substance: 2314 (SRYDAIR; REGION 1..7: note = epitope) [compound 2314]

Epitope sequence binding to IgE antibody, rank of the sequence (Key/Preferably/More preferably) [1]: Key
Substance: 2241 (RLLRGIRN; REGION 1..8: note = epitope) [compound 2241]

epitope sequence binding to IgE antibody, rank (Key/Preferably/More preferably) (serum of patient P24 (WDEIA)): More preferably
Substance: 1950 (QQQFPGQQQ; REGION 1..9: note = epitope) [compound 1950]

Epitope sequence binding to IgE antibody, rank of the sequence (serum of patient P29 (WDEIA), partial sequence): Key
Substance: 2509 (QVSF; REGION 1..4: note = epitope) [compound 2509]

epitope sequence binding to IgE antibody, rank (Key/Preferably/More preferably) (serum of patient G4 (adult, general immediate type allergy to wheat)): Key
Substance: 1828 (LEALPKFLK; REGION 1..9: note = epitope) [compound 1828]

Epitope sequence binding to IgE antibody, rank of the sequence [2]: Key
Substance: 2567 (QLVQQ; REGION 1..5: note = epitope) [compound 2567]

Epitope sequence binding to IgE antibody, rank of the sequence [2]: Key
Substance: 2648 (NKRSFK; REGION 1..6: note = epitope) [compound 2648]

Epitope sequence binding to IgE antibody, rank of the sequence (Key/Preferably/More preferably) (serum of patient P29 (WDEIA), sequence without X): Preferably
Substance: 2384 (YVTEIVL; REGION 1..7: note = epitope) [compound 2384]

Epitope sequence binding to IgE antibody, rank of the sequence (serum of patient P31 (WDEIA), partial sequence): Preferably
Substance: 2652 (KEAAEM; REGION 1..6: note = epitope) [compound 2652]
